{"source": "patent EP0586960B1", "about": "“Xanthone derivatives, their preparation and use” (INVERNI DELLA BEFFA S.P.A., priority 1992, dated 1994)", "key": {"hen osteoclasts": {"system": "hen osteoclasts", "assay": "Bone resorption by hen osteoclast cultures with rat bone particles pre-labelled with tritiated proline", "assay_type": "cell-based", "settings": "for inhibition at 10 µg/mL / inhibition at 25 µg/mL: Osteoclast, read-out: Inhibition % vs. controls", "experimental": "The activity of the new xanthones has been evaluated in vitro and in vivo. The effect on the bone resorption has been studied in vitro according to Zambonin-Zallone et al. Anatomy Embriology, 165, 405, 1982). The medullary bone, deriving from tibia and femur of hens fed with hypocalcic diet for 7 days was washed with MEM buffer, modified according to Joklik, at 4°C and filtered through a nylon filter with pore diameters of 112 microns. The obtained cell suspension was centrifuged at 1800 rpm for 5 minutes. The surnatant was discarded and the pellet treated with a 0.2% NaCl solution for 30 seconds to eliminate most of the present red blood cells. After restoration of the physiological osmolarity by means of 1.6% NaCl, the sample was centrifuged at 1800 rpm for 5 min. The obtained pellet, suspended again in the culture medium, was layered on 75% foetal calf serum in Joklik MEM for 45 min, so as to obtain a cell suspension enriched in osteoclasts. The fibroblasts were then filtered off by means of two filtrations on 112 µn nylon filters.\nThe so obtained cells were cultivated in a nucleotide-free medium, in the presence of 3 µg/ml of cytosine-1-D-β-arabinofuranoside to block the mitosis of proliferating cells. The culture medium contained 100 µg/ml streptomycin, 100 U.I./ml penicillin and 10% fetal calf serum. The cultures were incubated in humid atmosphere saturated with 5% CO₂ at 37°C and washed after 24 and 48 hours to remove non-adhering medullary cells.\nThe bone resorption was evaluated using the so prepared osteoclasts cultures cultured in the presence of rat bone particles, pre-labelled in vivo with trititated proline. During the resorption process, the collagen was degraded into fragments containing tritiated proline which was released in the culture medium; the resorption was calculated by measuring the radioactivity present in the medium after 24 and 48 hours of treatment.\nSimultaneously to each experiment, cell-free samples have also been prepared containing only bone fragments labelled in the culture medium to measure the aspecific release of radioactivity from the bone. This value was subtracted as background from the corresponding experimental value.\nThe compounds under examination were added to the culture medium at the concentrations of 10 and 25 µg/ml dissolved in DMSO. The inhibiting effect on the bone resorption of osteoclast of compound I (R = iPr, R₁ = OiPr), as an example, is reported on Table 1.\nThe significance was evaluated by the Student's t test versus the group treated with the solvent alone (control)."}, "[1]": {"system": "suckling rats under hypocalcic diet", "assay": "Antiosteoporotic activity in suckling rats under hypocalcic diet (femur compacta thickness by microradiography)", "assay_type": "in vivo, Wistar rats", "settings": "250 mg/kg/os", "experimental": "In vivo, the antiosteoporotic activity of the compound I (R = iPr, R₁ = OiPr) administered by the oral route, was evaluated on suckling rats under hypocalcic diet according to the method, slightly modified, disclosed by Lozupone et al., Bone, 9; 215, 1988). Female Wistar rats were allowed to delivery spontaneously.\nThe offsprings were pooled, weighed and re-distributed so as to obtain nests similar in weight and number.\nThe mothers during the suckling period were fed with an hypocalcic diet (Altromin DP 1031) and divided in two groups.\nOne group was treated orally with compound I (R = iPr, R₁ = OiPr) suspended in Methocel 0.5% at the dose of 250 mg/kg, whereas the second was treated with the vehicle alone (control group). The animals were sacrificed after 10 days from the start of milking.\nThe femur was taken from each animal and fixed, included in methacrylate and transversally cut. Two sections taken at the distal methaphysis and one from the medial methaphysis were microradiographed so as to measure the thickness of the compacta."}, "[2]": {"assay": "Acute toxicity in the rat after oral and intraperitoneal administration", "set-up": "species or system Sprague-Dawley rats", "settings": "in vivo, 14 days observation, read-out: LD₅₀", "experimental": "The acute toxicity of the compound I (R = iPr; R₁ = OiPr) was evaluated in the rat after oral and intraperitoneal administration.\nSprague-Dawley rats of both sexes (5M + 5F) were used for each group. […] The compound has an LD₅₀ > 4000 mg/kg (LD₀) after oral administration and an LD₅₀ > 1000 mg/kg (LD₂₀) by intraperitoneal route."}, "[3]": {"settings": "change versus control group (Methocel 0.5%)"}, "[4]": {"settings": "change versus control group (Methocel 0.5%); R₁ = OiPr)"}, "[5]": {"settings": "femur, sacrificed after 10 days, n = 3, p < 0.05"}}, "note": "Where two headings read alike, the source gives them in different places."}
{"compound": "CC(C)Oc1ccc2c(=O)c3ccc(OC(C)C)cc3oc2c1", "note": "[I (R=iPr; R₁=OiPr), 3,6-Di(isopropoxy)xanthone]", "values": [{"measurement": "Bone Res.", "setting": "hen osteoclasts; Conc. 10 µg/ml, 24h, n = 4", "result": "32.1 ± 3.6", "unit": "µg"}, {"measurement": "Bone Res.", "setting": "hen osteoclasts; Conc. 10 µg/ml, 48h, n = 4", "result": "50.2 ± 6.3", "unit": "µg"}, {"measurement": "Bone Res.", "setting": "hen osteoclasts; Conc. 25 µg/ml, 24h, n = 4, p < 0.01", "result": "16.0 ± 1.0", "unit": "µg"}, {"measurement": "Bone Res.", "setting": "hen osteoclasts; Conc. 25 µg/ml, 48h, n = 4, p < 0.01", "result": "21.0 ± 1.0", "unit": "µg"}, {"measurement": "inhibition at 10 µg/mL", "setting": "hen osteoclasts; Conc. 10 µg/ml, 24h", "result": 27.5, "unit": "%"}, {"measurement": "inhibition at 10 µg/mL", "setting": "hen osteoclasts; Conc. 10 µg/ml, 48h", "result": 30.9, "unit": "%"}, {"measurement": "inhibition at 25 µg/mL", "setting": "hen osteoclasts; Conc. 25 µg/ml, 24h", "result": 63.8, "unit": "%"}, {"measurement": "inhibition at 25 µg/mL", "setting": "hen osteoclasts; Conc. 25 µg/ml, 48h", "result": 71.1, "unit": "%"}, {"measurement": "activity on bone resorption", "setting": "hen osteoclasts; at the concentrations of 10 and 25 µg/ml", "result": "dose dependent activity"}, {"measurement": "bone resorption inhibition in comparison to unexposed controls", "setting": "hen osteoclasts; both at 24 and at 48 hours, concentration not stated in the sentence (10 and 25 µg/ml tested)", "result": "higher than 60%"}, {"measurement": "Compacta thinkness Diaphysis %", "setting": "[1]; [3]", "result": "+29%"}, {"measurement": "Compacta thinkness Methaphysis %", "setting": "[1]; [3]", "result": "+29%"}, {"measurement": "Compacta thinkness Diaphysis %", "setting": "[1]; [4]", "result": 29, "unit": "%"}, {"measurement": "Compacta thinkness Methaphysis %", "setting": "[1]; [4]", "result": 29, "unit": "%"}, {"measurement": "Compacta thinkness Diaphysis mm ± S.D.", "setting": "[1]; [5]", "result": "0.71±0.03", "unit": "mm"}, {"measurement": "Compacta thinkness Methaphysis mm ± S.D.", "setting": "[1]; [5]", "result": "0.40±0.12", "unit": "mm"}, {"measurement": "LD50 at 336 h", "setting": "[2]; ip, intraperitoneal route, printed with (LD₂₀)", "result": "> 1000", "unit": "mg/kg"}, {"measurement": "LD50 at 336 h", "setting": "[2]; oral administration, printed with (LD₀)", "result": "> 4000", "unit": "mg/kg"}]}
